Data as given in patent publication US10857167B2, “Use of oligosaccharide compositions to enhance weight gain” (Children's Hospital Medical Center, priority 2015, dated 2020).
“Also recorded” adds a separate entry of the source.

Tests used:
Format in all cases: in vivo, mouse
[1] = system: environmental enteropathy growth model; experiment: Environmental enteropathy growth model (control diet or regional-based diet); details: 2.5 g/L in drinking water from 4 weeks of age
Text: FIG. 41 is a scheme showing a 2′-FL experiment: Environmental Enteropathy. All dams were placed on Regional-based Diet when their pups were 10 days old. At weaning (3 weeks of age), pups were placed on either control diet (CD) or continued on regional-based diet (RBD), which is a malnutrition diet lacking nutrients. At 4 weeks of age, the pups were given either plain drinking water or 2-FL (2.5 g/L) in sipper sacs. Sipper sacs were changed and weighed every other day. Mice and food were weighed twice a week. Stool was collected at weaning, 6 weeks of age, and 8 weeks of age. Mice were sacrificed at 8 weeks of age. To further support the findings of the beneficial effect of 2′ FL supplementation on infant growth, another experiment as outlined in FIG. 41 was performed. All dams were placed on Regional-based Diet when their pups were 10 days old. At weaning (3 wks of age), pups were placed on either control diet (CD) or continued on regional-based diet (RBD), which is a malnutrition diet lacking nutrients. At 4 wks of age, the pups were given either plain drinking water or 2-FL (2.5 g/L) in sipper sacs. Sipper sacs were changed and weighed every other day. Mice and food were weighed twice a week. Stool was collected at weaning, 6 weeks of age, and 8 weeks of age. Mice were sacrificed at 8 weeks of age.

[2] = system: small bowel luminal microbiome; experiment: 16S sequencing of small bowel luminal contents after ICR
Text: Luminal small bowel contents were expressed into AllProtect Tissue Reagent (Qiagen Inc, CA). Bacterial DNA was extracted using the AllPrep DNA/RNA Mini Kit (Qiagen Inc, CA), according to kit instructions and prior to sequencing (described below). Small bowel tissue samples for RNA were placed into RNA Later (Life Technologies, NY). RNA extraction was accomplished following Qiagen RNeasy Plus Kit instruction (Qiagen Inc, CA). All nucleic acid samples were then stored at −80 Celsius until sequenced (described below).
Following bacterial community DNA extraction from harvested small bowel contents obtained from operated mice taken to 8 weeks, samples were quantified using the Qubit ssDNA kit (Life Technologies, NY). The V3 and V4 regions of the 16S gene were then amplified and tagged with region-specific primers (Illumina flowcell compatible sequences), permitting sequencing of up to 576 individual bacterial communities on the same flowcell. Fadrosh et al. (2014) Microbiome 2:6. Two positive and 2 negative controls were included in each run. FastStart Taq kit (Roche Applied Science, Indianapolis, Ind.) was used for thermocycling then equal volumes of each amplicon were pooled and cleaned using the QIAquick PCR cleanup column (Qiagen, MD). The size of library pools was then verified using the Fragment Analyzer CE (AATI, Ames Iowa) and quantified using the Qubit high sensitivity dsDNA kit. Dilution to 1 nM and addition of PhiX V3 library (Illumina, Calif.) was followed by denaturation and further dilution to 12 pM in Illumina's HT1 buffer. The pool was then loaded to the Illumina MiSeq V2 500 cycle kit cassette, a sample sheet prepared, and the MiSeq run was initiated for FASTQ generation.
The 16S rRNA amplicon sequences were assembled and processed using an integrated, high-throughput analysis pipeline established at Cincinnati Children's Hospital Medical Center. Paired-end reads were assembled and quality filtered using Pandaseq v2.8. Masella et al. (2012) BMC bioinformatics 13: 31. Reads with ambiguous base calls, minimum overlap of 10 nt, or <425 nt were culled. Demultiplexing and removal of barcodes and primers was performed using the FastX-toolkit. Pearson et al. (1997) Genomics 46: 24-36. De novo clustering at 97% sequence similarity and chimera filtering was performed using UPARSE v7. Edgar (2013) Nature methods 10: 996-998. UCLUST, as implemented in QIIME v1.8, was used for taxonomic classification to the Greengenes v13.8 database. Caporaso et al. (2010) Nature methods 7: 335-336; Edgar (2010) Bioinformatics 26: 2460-2461; and McDonald et al. (2012) The ISME journal 6: 610-618. PyNast and FastTree were used to align sequence reads and construct a phylogenetic tree. Caporaso et al. (2010) Bioinformatics 26: 266-267; and Price et al. (2010) PloS one 5: e9490; Price M N et al. (2009) Molecular biology and evolution 26: 1641-1650. Additional integrated analyses included QIIME scripts for the generation of alpha and beta diversity metrics, corresponding visualizations, and summaries and plots of taxonomic composition. Alpha and beta diversity metrics were computed after subsampling to the lowest observed read depth (n=7,793 reads).
In order to estimate the treatment effect on alpha diversity metrics adjusted for housing cohort, a generalized ANCOVA model was used. The Chaol, Shannon, Simpson and Faith's Phylogenetic Diversity indices were examined. Differences between groups in community composition post-treatment, as measured by the weighted and unweighted UniFrac metrics (Lozupone and Knight (2005) Applied and environmental microbiology 71: 8228-8235) were tested by permutational ANOVA as implemented by the ADONIS function in the R package vegan. Oksanen et al. (2015) Vegan: Community Ecology Package. 2015; and Team (2015) R: A language and environment for statistical computing R Foundation for Statistical Computing [http://www.R-project.org/. 2015]. […]

[3] = system: TFF3, MUC2, DEFA5, ZO-1, HSPA1A, Reg3b, Reg3g; experiment: Expression of genes relative to β-Actin in pre-operative and post-ICR mice; details: post-ICR with 2′ FL supplementation
[4] = luminal contents, postop vs preop

In the case of C[C@@H]1O[C@@H](O[C@H]2[C@H](O[C@H]3[C@H](O)[C@@H](O)C(O)O[C@@H]3CO)O[C@H](CO)[C@H](O)[C@@H]2O)[C@@H](O)[C@H](O)[C@@H]1O (stereo partly shown) [2′-FL, 2′-fucosyllactose], the “growth (weight change over time)” value ([1]; control diet) is reported as “increased growth”, the “growth (weight change over time)” value ([1]; regional based diet (malnutrition diet)) is reported as “did not increase growth” and the “relative abundance of Enterobacteriaceae after resection compared to control” value [2, 4] is reported as “greater decline”. For the same compound, the “relative abundance of Lachnospiraceae after resection compared to control” value [2, 4] was “relatively larger bloom”, the “weighted or unweighted UniFrac metrics compared to control” value ([2]; post-treatment, 8 weeks after ICR) was “Nor were differences in the weighted or unweighted UniFrac metrics detected” and the “other alpha-diversity metrics examined (Chao1, Simpson, Faith's Phylogenetic Diversity) compared to control” value ([2]; small bowel luminal contents 8 weeks after ICR) was “No differences were detected”. The “microbial alpha diversity by Shannon diversity index compared to control” value ([2]; small bowel luminal contents 56 days after ICR) was “significant increase; also recorded: increased; also recorded: greater alpha diversity”, the “enrichment of sequence reads of genus Parabacteroides (OTU_146) compared to controls” value ([2]; small bowel luminal contents 56 days after ICR, adjusted for housing cohort) was 4.1 log 2-fold and the “increase in microbes of the genus Parabacteroides compared to controls” value ([2]; supplemented, resected animals) was greater than 4 fold. The “expression of genes TFF3, DEFA5, HSPA1A, Reg3b, and Reg3g relative to β-Actin” value [3] was “increased expression”.
